Test results: the NIST ThermoML archive (doi:10.1016/j.jct.2017.05.001)

Test: wn = mass fraction of the nth substance listed
Settings: Liquid; for viscosity: Falling or rolling sphere viscometry; for mass density: Vibrating tube method

OCCN(CCO)CCO [triethanolamine] + O
Settings	mass density, w1 = 0.0992 [kg/m3]	mass density, w1 = 0.2 [kg/m3]	mass density, w1 = 0.2991 [kg/m3]	mass density, w1 = 0.4 [kg/m3]	viscosity, w1 = 0.0992 [mPa·s]	viscosity, w1 = 0.2 [mPa·s]	viscosity, w1 = 0.2991 [mPa·s]	viscosity, w1 = 0.4 [mPa·s]
373.15 K, 30000 kPa	985.1	998.4	1012.5	1027.7	0.3632	0.4601	0.6109	0.8363
373.15 K, 40000 kPa	989.4	1002.6	1016.8	1032	0.3659	0.4638	0.6193	0.8525
373.15 K, 50000 kPa	993.4	1006.7	1020.7	1035.7	–	–	–	–
373.15 K, 60000 kPa	997.4	1010.6	1024.6	1039.7	0.3738	0.4753	0.6379	0.8789
373.15 K, 70000 kPa	1001.4	1014.5	1028.4	1043.5	–	–	–	–
373.15 K, 80000 kPa	1005.3	1018.5	1032.4	1047.3	0.3807	0.4864	0.655	0.9114
373.15 K, 90000 kPa	1009.1	1022.1	1036	1050.8	–	–	–	–
373.15 K, 100000 kPa	1012.7	1025.7	1039.5	1054.3	0.3871	0.4953	0.6721	0.9403
373.15 K, 110000 kPa	1016.4	1029.4	1043.1	1057.9	–	–	–	–
373.15 K, 120000 kPa	1019.9	1032.9	1046.8	1061.3	–	–	–	–
373.15 K, 130000 kPa	1023.3	1036.2	1050.1	1064.6	–	–	–	–
373.15 K, 140000 kPa	1026.8	1039.7	1053.4	1067.8	–	–	–	–
393.15 K, 100 kPa	956.1	969.2	982.9	998.1	–	–	–	–
393.15 K, 500 kPa	956.4	969.5	983.3	998.5	–	–	–	–
393.15 K, 1000 kPa	956.6	969.7	983.5	998.6	–	–	–	–
393.15 K, 2000 kPa	957.1	970.2	984	999.1	–	–	–	–
393.15 K, 5000 kPa	958.6	971.7	985.5	1000.6	0.2913	0.3551	0.4515	0.5873
393.15 K, 10000 kPa	961.1	974.2	988	1003.1	0.2912	0.3579	0.4583	0.5948
393.15 K, 15000 kPa	963.4	976.5	990.3	1005.4	0.2933	0.3633	0.4629	0.6019
393.15 K, 20000 kPa	965.9	978.9	992.7	1007.8	0.295	0.362	0.4675	0.609
393.15 K, 25000 kPa	–	–	–	–	0.2963	0.3674	0.4703	0.6136
393.15 K, 30000 kPa	970.4	983.5	997.3	1012.4	0.2988	0.3659	0.4738	0.6246
393.15 K, 40000 kPa	974.9	988	1001.8	1016.7	0.3022	0.3704	0.4822	0.6362
393.15 K, 50000 kPa	979.2	992.3	1006	1021	–	–	–	–
393.15 K, 60000 kPa	983.5	996.5	1010.2	1025.2	0.308	0.3798	0.4973	0.6588
393.15 K, 70000 kPa	987.7	1000.7	1014.4	1029.3	–	–	–	–
393.15 K, 80000 kPa	991.7	1004.6	1018.3	1033.1	0.3138	0.3888	0.5121	0.6835
393.15 K, 90000 kPa	995.7	1008.6	1022.3	1037.1	–	–	–	–
393.15 K, 100000 kPa	999.4	1012.3	1026.1	1040.7	0.32	0.3982	0.5378	0.7054
393.15 K, 110000 kPa	1003.3	1016.1	1029.8	1044.5	–	–	–	–
393.15 K, 120000 kPa	1006.9	1019.8	1033.4	1048.1	–	–	–	–
393.15 K, 130000 kPa	1010.4	1023.4	1036.9	1051.5	–	–	–	–
393.15 K, 140000 kPa	1014.1	1026.9	1040.5	1055	–	–	–	–
